Among the data in patent US12371428B2 (Exelixis, Inc., priority 2019, dated 2025) are IC50 values, retold here.

Usually IC50 stands for the concentration that inhibits the measured activity by half.

What all share (type): cell-based
Experiment [1] deals with Mer (phospho-Mer, MERTK-transfected 293A cells) (Homo sapiens (Human), UniProt Q12866). Kind of experiment: Mer autophosphorylation ELISA in transient transfected 293A cells (Example H). The settings on record: cellular activity. Put shortly: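 IC50 from phospho-Mer ELISA of MERTK-transfected 293A cell lysates after 1 h treatment with serially diluted compound in serum-free medium.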
Mer (phospho-Mer, MERTK-transfected 293A cells), sequence (Q12866 21-999): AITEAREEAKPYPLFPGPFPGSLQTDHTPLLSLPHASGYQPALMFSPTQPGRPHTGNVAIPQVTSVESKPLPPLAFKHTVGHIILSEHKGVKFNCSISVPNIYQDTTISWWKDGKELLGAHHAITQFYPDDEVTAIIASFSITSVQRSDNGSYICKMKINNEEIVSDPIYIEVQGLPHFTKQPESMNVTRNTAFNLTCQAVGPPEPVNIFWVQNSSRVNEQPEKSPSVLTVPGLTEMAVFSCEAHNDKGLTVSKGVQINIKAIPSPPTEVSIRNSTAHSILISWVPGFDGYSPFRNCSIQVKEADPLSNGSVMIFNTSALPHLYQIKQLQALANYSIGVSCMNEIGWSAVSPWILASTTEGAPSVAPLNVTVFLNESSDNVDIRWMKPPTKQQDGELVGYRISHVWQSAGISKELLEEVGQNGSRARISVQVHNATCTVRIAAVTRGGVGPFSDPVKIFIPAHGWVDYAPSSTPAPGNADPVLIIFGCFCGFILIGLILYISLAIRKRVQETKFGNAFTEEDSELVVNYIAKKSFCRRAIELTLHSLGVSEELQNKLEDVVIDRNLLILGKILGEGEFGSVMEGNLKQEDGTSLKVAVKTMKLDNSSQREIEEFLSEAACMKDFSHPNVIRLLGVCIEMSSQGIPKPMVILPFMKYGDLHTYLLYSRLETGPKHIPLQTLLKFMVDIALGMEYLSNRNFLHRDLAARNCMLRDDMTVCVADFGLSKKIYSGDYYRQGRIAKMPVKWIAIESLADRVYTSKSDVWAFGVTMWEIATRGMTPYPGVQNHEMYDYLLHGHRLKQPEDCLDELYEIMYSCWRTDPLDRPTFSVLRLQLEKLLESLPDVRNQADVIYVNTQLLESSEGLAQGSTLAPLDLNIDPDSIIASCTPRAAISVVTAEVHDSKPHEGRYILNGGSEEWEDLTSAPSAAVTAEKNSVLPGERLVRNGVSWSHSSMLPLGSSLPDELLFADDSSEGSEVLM

Experiment [2] addresses Met (phospho-Met, HGF-stimulated PC-3 prostate cancer cells) (Homo sapiens (Human), UniProt P08581). Kind of experiment: Met autophosphorylation ELISA in PC-3 cells (Example F). The following applies: cellular activity, read-out: c-Met IC50. Put shortly:
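Compounds were tested on HGF-stimulated PC-3 cells. After 24 h culture and 3 h serum starvation, cells got compound for 1 h and 100 ng/mL HGF for 10 min, and Met tyrosine phosphorylation was measured by ELISA.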

Experiment [3] addresses AXL (phospho-AXL, Gas6-stimulated A-172 glioblastoma cells) (Homo sapiens (Human), UniProt P30530). Kind of experiment: AXL autophosphorylation ELISA in A-172 cells (Example E). The settings on record: cellular activity, read-out: Axl IC50. The method, then:
A-172 cells were incubated at 37° C., 5% CO2 for 24 h and then starved for 24 h in serum-free medium. Test compounds were serially diluted to produce an 8-point dose curve in fresh serum-free medium to a final concentration of 0.3% DMSO (vehicle) and added to the cells and incubated for 1 h. […] Lysates were collected and 100 μL/well added into the human phospho-AXL DuoSet IC ELISA (R&D Systems #DYC2228-2). […] Positive control wells (100% activity) contained Gas6-stimulated, DMSO-treated cell lysates. Negative control wells (0% activity) contained Gas6-stimulated, reference inhibitor-treated cell lysates. IC50 values were calculated by nonlinear regression analysis using a 4-parameter logistic curve fit in ActivityBase XE (IDBS).

Setting [4] is: Mer autophosphorylation ELISA in transient transfected 293A cells.
[5] abbreviates: Met autophosphorylation ELISA in PC-3 cells.
Where [6] appears, read: AXL autophosphorylation ELISA in A-172 cells.

Where two headings read alike, the source gives them in different places.

Met (phospho-Met, HGF-stimulated PC-3 prostate cancer cells), sequence (P08581 25-1390): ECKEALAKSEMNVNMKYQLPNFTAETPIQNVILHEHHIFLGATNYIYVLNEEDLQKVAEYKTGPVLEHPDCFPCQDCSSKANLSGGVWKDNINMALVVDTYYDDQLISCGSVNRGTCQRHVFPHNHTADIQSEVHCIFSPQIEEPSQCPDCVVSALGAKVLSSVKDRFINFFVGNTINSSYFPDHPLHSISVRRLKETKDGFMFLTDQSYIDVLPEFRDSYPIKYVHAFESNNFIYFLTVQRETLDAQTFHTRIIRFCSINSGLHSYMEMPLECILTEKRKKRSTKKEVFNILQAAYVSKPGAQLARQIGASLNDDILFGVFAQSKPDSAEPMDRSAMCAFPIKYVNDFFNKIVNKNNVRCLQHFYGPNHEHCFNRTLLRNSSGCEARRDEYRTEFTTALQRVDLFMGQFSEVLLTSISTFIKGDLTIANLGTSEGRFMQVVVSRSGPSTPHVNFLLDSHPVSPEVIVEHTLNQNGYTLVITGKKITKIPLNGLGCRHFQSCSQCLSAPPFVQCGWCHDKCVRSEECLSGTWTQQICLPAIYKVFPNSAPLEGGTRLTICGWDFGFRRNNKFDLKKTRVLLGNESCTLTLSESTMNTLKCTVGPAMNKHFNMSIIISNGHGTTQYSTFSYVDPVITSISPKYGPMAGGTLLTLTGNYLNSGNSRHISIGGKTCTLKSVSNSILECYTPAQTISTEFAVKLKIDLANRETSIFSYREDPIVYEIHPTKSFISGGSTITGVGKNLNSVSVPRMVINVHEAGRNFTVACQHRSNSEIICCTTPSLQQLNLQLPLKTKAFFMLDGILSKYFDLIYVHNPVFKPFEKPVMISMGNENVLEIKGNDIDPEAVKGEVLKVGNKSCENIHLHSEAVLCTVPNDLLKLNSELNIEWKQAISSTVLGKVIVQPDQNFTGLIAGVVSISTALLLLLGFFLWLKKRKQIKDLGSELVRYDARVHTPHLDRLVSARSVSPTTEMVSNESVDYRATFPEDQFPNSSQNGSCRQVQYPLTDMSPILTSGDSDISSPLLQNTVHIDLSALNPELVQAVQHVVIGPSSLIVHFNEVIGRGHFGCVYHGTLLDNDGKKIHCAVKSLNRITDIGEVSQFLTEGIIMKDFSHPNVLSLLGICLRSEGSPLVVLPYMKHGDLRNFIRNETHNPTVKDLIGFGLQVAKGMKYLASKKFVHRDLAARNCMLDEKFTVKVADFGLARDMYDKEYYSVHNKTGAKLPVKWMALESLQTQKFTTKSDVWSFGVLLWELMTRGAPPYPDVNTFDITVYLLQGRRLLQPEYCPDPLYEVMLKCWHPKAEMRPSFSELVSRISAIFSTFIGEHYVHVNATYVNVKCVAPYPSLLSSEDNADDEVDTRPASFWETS
AXL (phospho-AXL, Gas6-stimulated A-172 glioblastoma cells), sequence (P30530 26-894): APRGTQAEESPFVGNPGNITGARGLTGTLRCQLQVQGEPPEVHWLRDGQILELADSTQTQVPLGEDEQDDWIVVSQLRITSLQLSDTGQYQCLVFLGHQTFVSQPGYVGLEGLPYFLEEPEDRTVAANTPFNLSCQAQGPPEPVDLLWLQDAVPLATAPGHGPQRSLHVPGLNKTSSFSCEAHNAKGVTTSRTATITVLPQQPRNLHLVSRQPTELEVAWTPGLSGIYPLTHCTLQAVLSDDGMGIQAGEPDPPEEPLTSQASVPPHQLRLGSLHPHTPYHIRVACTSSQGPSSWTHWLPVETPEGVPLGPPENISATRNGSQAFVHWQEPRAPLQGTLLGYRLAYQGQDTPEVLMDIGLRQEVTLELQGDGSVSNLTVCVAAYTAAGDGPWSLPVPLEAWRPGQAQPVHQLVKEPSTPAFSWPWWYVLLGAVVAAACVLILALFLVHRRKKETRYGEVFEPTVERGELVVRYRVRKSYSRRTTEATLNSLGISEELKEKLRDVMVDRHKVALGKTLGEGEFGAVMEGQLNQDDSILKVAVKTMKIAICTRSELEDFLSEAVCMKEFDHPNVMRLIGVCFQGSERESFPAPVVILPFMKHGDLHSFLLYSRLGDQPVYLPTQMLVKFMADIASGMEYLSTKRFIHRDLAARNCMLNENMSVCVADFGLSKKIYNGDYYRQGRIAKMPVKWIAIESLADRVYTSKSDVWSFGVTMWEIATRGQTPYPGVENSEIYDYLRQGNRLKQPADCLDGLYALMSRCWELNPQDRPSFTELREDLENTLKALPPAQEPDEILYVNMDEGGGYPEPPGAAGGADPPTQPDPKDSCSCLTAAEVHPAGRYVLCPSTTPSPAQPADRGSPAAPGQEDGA

For `Cc1cc(C)n(-c2ccc(F)cc2)c(=O)c1C(=O)Nc1ccc(Oc2ccnc3cc(C(C)CO)cnc23)c(F)c1` (stereo not drawn) [Compound 599, N-[3-Fluoro-4-[[7-(1-hydroxypropan-2-yl)-1,5-naphthyridin-4-yl]oxy]phenyl]-1-(4-fluorophenyl)-4,6-dimethyl-2-oxopyridine-3-carboxamide], the half-inhibitory concentration (IC50) in experiment [1] (setting [4]), in experiment [2] (setting [5]) and in experiment [3] (setting [6]) was below 100 nM in each case.

As for `COc1cnc2c(Oc3ccc(NC(=O)c4c(C)n(CCF)cc(-c5ccc(F)c(F)c5)c4=O)cc3F)ccnc2c1` [Compound 807, 5-(3,4-difluorophenyl)-1-(2-fluoroethyl)-N-[3-fluoro-4-[(7-methoxy-1,5-naphthyridin-4-yl)oxy]phenyl]-2-methyl-4-oxopyridine-3-carboxamide], the IC50 in experiment [1] (transfected 293A cells) is below 100 nM; in experiment [2] (PC-3 cells), 100 to 300 nM; in experiment [3] (A-172 cells) it was below 100 nM.

For the compound `COCc1c(C(=O)Nc2ccc(Oc3ccnc4cc(OC)c(OC)nc34)c(F)c2)c(=O)c(-c2ccc(F)cc2)c(C)n1C` [Compound 336, N-[4-[(6,7-dimethoxy-1,5-naphthyridin-4-yl)oxy]-3-fluorophenyl]-5-(4-fluorophenyl)-2-(methoxymethyl)-1,6-dimethyl-4-oxopyridine-3-carboxamide], the IC50 in experiment [1] (setting [4]), in experiment [2] (setting [5]) and in experiment [3] (setting [6]) was below 100 nM throughout.

Consider `COc1ccc2nccc(Oc3ccc(NC(=O)c4c(C)ncc(-c5ccc(F)cc5C)c4O)cc3)c2n1` [Compound 493, 5-(4-fluoro-2-methylphenyl)-4-hydroxy-N-[4-[(6-methoxy-1,5-naphthyridin-4-yl)oxy]phenyl]-2-methylpyridine-3-carboxamide], for which the IC50 in experiment [1] (setting [4]), in experiment [2] (setting [5]) and in experiment [3] (setting [6]) was below 100 nM in each case.

On to `COc1cc2nccc(Oc3ccc(NC(=O)c4cn(CCF)c(C)c(-c5ccc(F)cc5)c4=O)cc3F)c2nc1OC` [Compound 622, N-[4-[(6,7-Dimethoxy-1,5-naphthyridin-4-yl)oxy]-3-fluorophenyl]-1-(2-fluoroethyl)-5-(4-fluorophenyl)-6-methyl-4-oxopyridine-3-carboxamide], for which the IC50 in experiment [1] (setting [4]), in experiment [2] (setting [5]) and in experiment [3] (setting [6]) was below 100 nM throughout.

Turning to `COc1cc2nccc(Oc3ccc(NC(=O)c4cc(F)c(C)n(-c5ccc(F)cc5)c4=O)cc3F)c2nc1OC` [Compound 337, N-[4-[(6,7-dimethoxy-1,5-naphthyridin-4-yl)oxy]-3-fluorophenyl]-5-fluoro-1-(4-fluorophenyl)-6-methyl-2-oxopyridine-3-carboxamide], the IC50 in experiment [1] (setting [4]), in experiment [2] (setting [5]) and in experiment [3] (setting [6]) was below 100 nM in each case.

As to `COc1cnc2c(Oc3ccc(NC(=O)c4cn(CCF)c(C)c(-c5ccc(F)cc5C)c4=O)cc3)ccnc2c1` [Compound 798, 1-(2-fluoroethyl)-5-(4-fluoro-2-methylphenyl)-N-[4-[(7-methoxy-1,5-naphthyridin-4-yl)oxy]phenyl]-6-methyl-4-oxopyridine-3-carboxamide], the IC50 in experiment [1] (setting [4]), in experiment [2] (setting [5]) and in experiment [3] (setting [6]) was below 100 nM in each case.

With `COc1cc2nccc(Oc3ccc(NC(=O)c4nnc(C)c(-c5ccc(F)cc5)c4SC)cc3F)c2nc1OC` [Compound 602, N-[4-[(6,7-Dimethoxy-1,5-naphthyridin-4-yl)oxy]-3-fluorophenyl]-5-(4-fluorophenyl)-6-methyl-4-methylsulfanylpyridazine-3-carboxamide], the IC50 was below 100 nM in experiment [1] (setting [4]), 100 to 300 nM in experiment [2] (setting [5]) and 100 to 300 nM in experiment [3] (setting [6]).

In the case of `CNC(=O)c1cc2c(Oc3ccc(NC(=O)c4cnc(C)c(-c5ccc(F)cc5)c4O)cc3)ccnc2cn1` [Compound 398, 4-[4-[[5-(4-fluorophenyl)-4-hydroxy-6-methylpyridine-3-carbonyl]amino]phenoxy]-N-methyl-1,7-naphthyridine-6-carboxamide], the IC50 in experiment [1] (setting [4]), in experiment [2] (setting [5]) and in experiment [3] (setting [6]) was below 100 nM in each case.

As to `COc1cnc2c(Oc3ccc(NC(=O)c4c(C)nc(C)c(-c5ccc(F)cc5F)c4O)cc3F)ccnc2c1` [Compound 210, 5-(2,4-Difluorophenyl)-N-[3-fluoro-4-[(7-methoxy-1,5-naphthyridin-4-yl)oxy]phenyl]-4-hydroxy-2,6-dimethylpyridine-3-carboxamide], the IC50 in experiment [1] (setting [4]), in experiment [2] (setting [5]) and in experiment [3] (setting [6]) was below 100 nM each time.

With `CCOCc1nc(C)c(-c2ccc(F)cc2)c(O)c1C(=O)Nc1ccc(Oc2ccnc3cc(OC)c(OC)nc23)c(F)c1` [Compound 213, N-[4-[(6,7-Dimethoxy-1,5-naphthyridin-4-yl)oxy]-3-fluorophenyl]-2-(ethoxymethyl)-5-(4-fluorophenyl)-4-hydroxy-6-methylpyridine-3-carboxamide], the 50% inhibitory concentration (IC50) in experiment [1] (setting [4]), in experiment [2] (setting [5]) and in experiment [3] (setting [6]) was below 100 nM throughout.

For `COc1cnc2c(Oc3ccc(NC(=O)c4cn(CCF)c(C)c(-c5ccc(F)cc5)c4=O)cc3F)ccnc2c1` [Compound 624, 1-(2-Fluoroethyl)-N-[3-fluoro-4-[(7-methoxy-1,5-naphthyridin-4-yl)oxy]phenyl]-5-(4-fluorophenyl)-6-methyl-4-oxopyridine-3-carboxamide], the concentration for half-maximal inhibition (IC50) in experiment [1] (setting [4]), in experiment [2] (setting [5]) and in experiment [3] (setting [6]) was below 100 nM in each case.

As for `COc1nc2c(Oc3ccc(NC(=O)c4c(C)nc(C)c(-c5ccc(F)cc5C)c4O)cc3F)ccnc2cc1N` [Compound 804, N-[4-[(7-amino-6-methoxy-1,5-naphthyridin-4-yl)oxy]-3-fluorophenyl]-5-(4-fluoro-2-methylphenyl)-4-hydroxy-2,6-dimethylpyridine-3-carboxamide], the IC50 in experiment [1] (transfected 293A cells), in experiment [2] (PC-3 cells) and in experiment [3] (A-172 cells) was below 100 nM each time.

For the compound `COc1cnc2c(Oc3ccc(NC(=O)c4cn(C(F)F)c(C)c(-c5ccc(F)cc5)c4=O)cc3F)ccnc2c1` [Compound 626, 1-(Difluoromethyl)-N-[3-fluoro-4-[(7-methoxy-1,5-naphthyridin-4-yl)oxy]phenyl]-5-(4-fluorophenyl)-6-methyl-4-oxopyridine-3-carboxamide], the half-inhibitory concentration (IC50) in experiment [1] (setting [4]), in experiment [2] (setting [5]) and in experiment [3] (setting [6]) was below 100 nM throughout.

Turning to `COc1cc2nccc(Oc3ccc(NC(=O)c4cn(CCF)c(C)c(-c5ccc(F)cc5C)c4=O)cc3F)c2nc1OC` [Compound 801, N-[4-[(6,7-dimethoxy-1,5-naphthyridin-4-yl)oxy]-3-fluorophenyl]-1-(2-fluoroethyl)-5-(4-fluoro-2-methylphenyl)-6-methyl-4-oxopyridine-3-carboxamide], the IC50 in experiment [1] (setting [4]), in experiment [2] (setting [5]) and in experiment [3] (setting [6]) was below 100 nM each time.

As to `COCc1nc(C)c(-c2ccc(F)cc2F)c(O)c1C(=O)Nc1ccc(Oc2ccnc3cc(OC)cnc23)c(F)c1` [Compound 211, 5-(2,4-Difluorophenyl)-N-[3-fluoro-4-[(7-methoxy-1,5-naphthyridin-4-yl)oxy]phenyl]-4-hydroxy-2-(methoxymethyl)-6-methylpyridine-3-carboxamide], the half-maximal inhibitory concentration (IC50) in experiment [1] (setting [4]), in experiment [2] (setting [5]) and in experiment [3] (setting [6]) was below 100 nM each time.

For `COc1cc2nccc(Oc3ccc(NC(=O)c4c(C)n(CCF)cc(-c5ccc(F)c(C)c5)c4=O)cc3F)c2nc1OC` [Compound 806, N-[4-[(6,7-dimethoxy-1,5-naphthyridin-4-yl)oxy]-3-fluorophenyl]-1-(2-fluoroethyl)-5-(4-fluoro-3-methylphenyl)-2-methyl-4-oxopyridine-3-carboxamide], the IC50 in experiment [1] (transfected 293A cells), in experiment [2] (PC-3 cells) and in experiment [3] (A-172 cells) was below 100 nM in each case.

Regarding `CCOCc1nc(C)c(-c2ccc(F)cc2)c(O)c1C(=O)Nc1ccc(Oc2ccnc3cc(OC)cnc23)c(F)c1` [Compound 214, 2-(Ethoxymethyl)-N-[3-fluoro-4-[(7-methoxy-1,5-naphthyridin-4-yl)oxy]phenyl]-5-(4-fluorophenyl)-4-hydroxy-6-methylpyridine-3-carboxamide], the IC50 in experiment [1] (setting [4]), in experiment [2] (setting [5]) and in experiment [3] (setting [6]) was below 100 nM throughout.

As for `COc1cnc2c(Oc3ccc(NC(=O)c4cn(CCF)c(C)c(-c5ccc(F)cc5C)c4=O)cc3F)ccnc2c1` [Compound 799, 1-(2-fluoroethyl)-N-[3-fluoro-4-[(7-methoxy-1,5-naphthyridin-4-yl)oxy]phenyl]-5-(4-fluoro-2-methylphenyl)-6-methyl-4-oxopyridine-3-carboxamide], the IC50 in experiment [1] (setting [4]), in experiment [2] (setting [5]) and in experiment [3] (setting [6]) was below 100 nM each time.
